Laboratory results reported in patent US20150193575A1, “SYSTEMS AND METHODS OF SELECTING COMPOUNDS WITH REDUCED RISK OF CARDIOTOXICITY” (The Governors of the University of Alberta, priority 2013, published 2015).

Key:
[1] = target: T1, hERG channel (Homo sapiens, UniProt Q12809); test: Predictor hERG fluorescence polarization assay
Experimental: Compounds that bind to the hERG channel proteins were identified by their ability to displace the tracer (Predictor hERG Tracer Red) and decrease the fluorescence polarization. The Tracer Red ligand was stored in 100% DMSO and diluted to 8 nM in assay buffer (50 mM Tris-HCl, 1 mM MgCl2, 10 mM KCl, 0.05% Pluronic F127, pH 7.4, 4° C.) on the day of the experiment. Test samples and controls were diluted in assay buffer to 16 concentrations with half-log intervals. Cell membranes were removed from the −80° C. freezer and placed on ice after defrosting. Membranes working solution protein concentration was 0.3 mg/mL. […] IC50 values were derived by fitting a sigmoidal function to concentration-response data, where concentration-dependent inhibition was observed. All IC50 data were calculated and analyzed using GraphPad Prism 6 (GraphPad Software).

[2] = target: T1, hERG channel; test: Automated patch clamp (IonFlux) on AC10 cardiomyocytes stably expressing hERG; details: for effect on hERG tail currents / electrophysiology (in words): AC10 cardiomyocytes
[3] = target: hERG1 potassium channel (Homo sapiens, UniProt Q12809); test: in vitro
hERG1 potassium channel, sequence (Q12809 whole entry): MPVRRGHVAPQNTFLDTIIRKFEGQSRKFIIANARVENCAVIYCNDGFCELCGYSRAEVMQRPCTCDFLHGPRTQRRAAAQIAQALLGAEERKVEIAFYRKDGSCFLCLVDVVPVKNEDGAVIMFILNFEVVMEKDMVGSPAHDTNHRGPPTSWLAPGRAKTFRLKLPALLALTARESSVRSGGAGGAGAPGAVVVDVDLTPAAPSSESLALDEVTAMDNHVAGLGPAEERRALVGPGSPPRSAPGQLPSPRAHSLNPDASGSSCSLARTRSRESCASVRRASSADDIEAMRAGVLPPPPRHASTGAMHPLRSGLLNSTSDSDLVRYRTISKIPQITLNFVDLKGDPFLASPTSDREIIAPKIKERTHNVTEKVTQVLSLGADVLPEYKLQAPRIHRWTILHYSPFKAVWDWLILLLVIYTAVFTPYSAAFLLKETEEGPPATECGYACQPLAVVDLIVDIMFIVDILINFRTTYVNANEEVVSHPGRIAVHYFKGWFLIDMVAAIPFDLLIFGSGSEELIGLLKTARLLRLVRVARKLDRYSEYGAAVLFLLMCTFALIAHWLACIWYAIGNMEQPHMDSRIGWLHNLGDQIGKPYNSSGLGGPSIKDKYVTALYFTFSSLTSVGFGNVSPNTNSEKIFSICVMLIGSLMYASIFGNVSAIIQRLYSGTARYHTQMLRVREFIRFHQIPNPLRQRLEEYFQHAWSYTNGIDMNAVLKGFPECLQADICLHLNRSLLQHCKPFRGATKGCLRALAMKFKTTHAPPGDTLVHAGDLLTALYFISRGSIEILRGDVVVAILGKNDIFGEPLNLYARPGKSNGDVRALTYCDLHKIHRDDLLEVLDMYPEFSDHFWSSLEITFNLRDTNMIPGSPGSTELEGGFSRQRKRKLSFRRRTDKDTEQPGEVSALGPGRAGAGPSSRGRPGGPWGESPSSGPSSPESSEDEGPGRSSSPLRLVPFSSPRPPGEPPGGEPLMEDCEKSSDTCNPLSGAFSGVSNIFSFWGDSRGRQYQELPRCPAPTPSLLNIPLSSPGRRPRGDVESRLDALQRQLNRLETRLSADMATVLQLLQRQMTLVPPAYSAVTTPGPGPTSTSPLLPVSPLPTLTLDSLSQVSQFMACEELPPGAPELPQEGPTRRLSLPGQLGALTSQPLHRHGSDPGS
Experimental: Mammalian cells expressing the hERG1 potassium channel were dispensed into 384-well planar arrays and hERG tail-currents were measured by whole-cell voltage-clamping. A range of concentrations (TBD) of the test compounds were then added to the cells and a second recording of the hERG current was made. The percent change in hERG current was calculated.
The experiments were performed on an IonWorks™ FIT instrument (Molecular Devices Corporation), which automatically performs electrophysiology measurements in 48 single cells simultaneously in a specialised 384-well plate (PatchPlate™). All cell suspensions, buffers and test compound solutions were at room temperature during the experiment.
The cells used were Chinese hamster ovary (CHO) cells stably transfected with hERG (cell-line obtained from Cytomyx, UK). A single-cell suspension was prepared in extracellular solution (Dulbecco's phosphate buffered saline with calcium and magnesium pH 7-7.2) and aliquots were added automatically to each well of a PatchPlate™. The cells were then positioned over a small hole at the bottom of each well by applying a vacuum beneath the plate to form an electrical seal. The vacuum was applied through a single compartment common to all wells which were filled with intracellular solution (buffered to pH 7.2 with HEPES). The resistance of each seal was measured via a common ground-electrode in the intracellular compartment and individual electrodes placed into each of the upper wells.
Electrical access to the cell was then achieved by circulating a perforating agent, amphotericin, underneath the PatchPlate™ and then measuring the pre-compound hERG current. An electrode was positioned in the extracellular compartment and a holding potential of −80 mV for 15 sec was applied. The hERG channels were then activated by applying a depolarising step to +40 mV for 5 sec and then clamped at −50 mV for 4 sec to elicit the hERG tail current, before returning to −80 mV for 0.3 s.
A test compound was then added automatically to the upper wells of the PatchPlate™ from a 96-well microtitre plate containing a range of concentrations of each compound. Solutions were prepared by diluting DMSO solutions of the test compound into extracellular buffer. The test compound was left in contact with the cells for 300 sec before recording currents using the same voltage-step protocol as in the pre-compound scan. […] Each concentration was tested in 4 replicate wells on the PatchPlate™.
Post-compound currents were then expressed as a percentage of pre-compound currents and plotted against concentration for each compound. Where concentration-dependent inhibition is observed, the data are fitted to the following equation and an IC50 value calculated: […]
An IC50 was reported if concentration-dependent inhibition is observed. The standard error (SE) of the IC50 model and the number of data-points used to determine IC50 was also reported.

[4] = clinical trial, placed on clinical hold by the FDA; cited from earlier work
[5] = target: hERG1 (Homo sapiens, UniProt Q12809); test: FluxOR potassium channel assay in HEK 293 cells stably expressing hERG1
hERG1, sequence (Q12809 whole entry): as above
Experimental: The FluxOR™ assay monitors the permeability of potassium channels to thallium (Tl^+) ions. When thallium is added to the extracellular solution with a stimulus to open channels, thallium flows down its concentration gradient into the cells, and channel or transporter activity is detected with a proprietary indicator dye that increases in cytosolic fluorescence. Accordingly, the fluorescence reported in the FluxOR™ system is an indicator of any ion channel activity or transport process that allows thallium into cells.
Briefly, FluxOR™ loading buffer was made from Hank's Balanced Saline Solution (HBSS) buffered with 20 mM HEPES and pH adjusted with NaOH to 7.4. Powerload™ concentrate and water-soluble probenecid were used as directed by the kit to enhance the dye solubility and retention, respectively. Media were removed from the cell plates manually, and 20 of loading buffer containing the FluxOR™ dye mix was applied to each well. Once inside the cell, the nonfluorescent AM ester form of the FluxOR™ dye was cleaved by endogenous esterases into a thallium-sensitive indicator. The dye was loaded for 60 min at room temperature and then removed manually. […] To each well 20 μL stimulation buffer was added and fluorescence measures were done every 1 sec for a total time of 180 sec.

T1 sequence (Q12809 whole entry): as above

Compound | IC50 [1] | IC50 [2] | inhibition at 300 sec, 0.0032 µM ([3]; human) | inhibition at 300 sec, 0.016 µM ([3]; human) | inhibition at 300 sec, 0.08 µM ([3]; human) | inhibition at 300 sec, 0.4 µM ([3]; human) | inhibition at 300 sec, 2 µM ([3]; human) | inhibition at 300 sec, 10 µM ([3]; human) | other results
COc1nc(N)nc2c1ncn2[C@@H]1O[C@H](COP(=O)(N[C@@H](C)C(=O)OCC(C)(C)C)Oc2cccc3ccccc23)[C@@H](O)[C@@]1(C)O (some centres unmarked) [BMS986094] | 0.00375 µM | 0.266 µM | – | – | – | – | – | – | –
Nc1nc2c(ncn2[C@@H]2O[C@H](CO)[C@@H](O)[C@H]2O)c(=O)[nH]1 [Guanosine, guanosine] | – | – | 0.711% | 6.12% | -3.46% | 26.3% | 0.453% | 5.54% | displacement of the hERG-bound dye (in words) [1]: no detectable effect on hERG blockage; effect on hERG tail currents / electrophysiology (in words) [2]: none of BMS-986094 metabolites demonstrates either hERG cavity binding or electrophysiology changes
CC(=O)Oc1ccccc1C(=O)O [Aspirin, acetyl salicylic acid] | – | – | -2.97% | -3.09% | -21% | -5.88% | -3.71% | -0.546% | –
COc1nc(N)nc2c1ncn2C1O[C@H](COP(=O)(N[C@H](C)C(=O)OCC(C)(C)C)Oc2cccc3ccccc23)[C@@H](O)[C@@]1(C)O (stereo partly drawn) [BMS-986094, (2R)-neopentyl 2-(((((2R,3R,4R)-5-(2-amino-6-methoxy-9H-purin-9-yl)-3,4-dihydroxy-4-methyltetrahydrofuran-2-yl)methoxy)(naphthalen-1-yloxy)phosphoryl)amino)propanoate] | 0.003 µM | 0.266 µM | 18.2% | -4.94% | -8.97% | -5.33% | – | 23.3% | inhibition of the potassium channel (in words) ([3]; CHO cells stably transfected with hERG): inhibit the potassium channel; effects on QT interval prolongation in patients (in words) [4]: nine patients in a clinical trial had to be hospitalized and one of them died; block of conductance of the potassium channel (in words) [5]: block conductance of the potassium channel; effect on hERG tail currents / electrophysiology (in words) [2]: potently blocks hERG tail currents
O=c1[nH]c2ccccc2n1C1CCN(CCCC(c2ccc(F)cc2)c2ccc(F)cc2)CC1 [Pimozide] | – | – | – | – | – | – | – | – | inhibition at 300 sec, 0.00032 µM ([3]; human): 2.29%; inhibition at 300 sec, 0.0016 µM ([3]; human): 4.56%; inhibition at 300 sec, 0.008 µM ([3]; human): 5.6%; inhibition at 300 sec, 0.04 µM ([3]; human): 25.1%; inhibition at 300 sec, 0.2 µM ([3]; human): 9.44%; inhibition at 300 sec, 1 µM ([3]; human): 83.2%
CC(C)NCC(O)c1ccc(NS(C)(=O)=O)cc1 (centres unmarked) [Sotalol] | – | – | 1.69% | -0.73% | 20.4% | 10.9% | 1.72% | 0.95% | –
CS(=O)(=O)c1ccc(C2=C(c3ccccc3)C(=O)OC2)cc1 [rofecoxib] | 5.83 µM | 15 µM | – | – | – | – | – | – | –
